Measured values taken from PubChem BioAssay AID1963850 (Molecular Pharmacology Branch, DTP, NCI, 2024).

Test system: 192522-019-R-J2-PDC complex tumor spheroid viability
Assay: Anticancer human tumor 192522-019-R-J2-PDC patient-derived colon adenocarcinoma cell line growth inhibition [POLQ]
Conditions: for IC50: curve of first compound; for viability, T/C: stronger effect = lower value
How it was run: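 Patient-derived tumour cells were co-cultured with HUVEC and mesenchymal stem cells as multicellular spheroids at 37 °C. They were treated with POLQ inhibitors (novobiocin, ART-558, RP6685) alone or combined with other agents. Top concentrations were at or near clinical Cmax (otherwise 10 microM; SN-38 at 1 microM), decreasing in half-log steps.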

[1] = second compound 0.0316 µM, first compound 0.0316 µM
[2] = second compound 0.0316 µM, first compound 0.1 µM
[3] = second compound 0.0316 µM, first compound 0.316 µM
[4] = second compound 0.0316 µM, first compound 1 µM
[5] = second compound 0.1 µM, first compound 0.0316 µM
[6] = second compound 0.1 µM, first compound 0.1 µM
[7] = second compound 0.1 µM, first compound 0.316 µM
[8] = second compound 0.1 µM, first compound 1 µM
[9] = second compound 0.316 µM, first compound 0.0316 µM
[10] = second compound 0.316 µM, first compound 0.1 µM
[11] = second compound 0.316 µM, first compound 0.316 µM
[12] = second compound 0.316 µM, first compound 1 µM
[13] = second compound 1 µM, first compound 0.0316 µM
[14] = second compound 1 µM, first compound 0.1 µM
[15] = second compound 1 µM, first compound 0.316 µM
[16] = second compound 1 µM, first compound 1 µM
[17] = second compound 3.16 µM, first compound 0.0316 µM
[18] = second compound 3.16 µM, first compound 0.1 µM
[19] = second compound 3.16 µM, first compound 0.316 µM
[20] = second compound 3.16 µM, first compound 1 µM
[21] = second compound 10 µM, first compound 0.0316 µM
[22] = second compound 10 µM, first compound 0.1 µM
[23] = second compound 10 µM, first compound 0.316 µM
[24] = second compound 10 µM, first compound 1 µM
[25] = second compound 0.0316 µM, first compound 3.16 µM
[26] = second compound 0.0316 µM, first compound 10 µM
[27] = second compound 0.1 µM, first compound 3.16 µM
[28] = second compound 0.1 µM, first compound 10 µM
[29] = second compound 0.316 µM, first compound 3.16 µM
[30] = second compound 0.316 µM, first compound 10 µM
[31] = second compound 1 µM, first compound 3.16 µM
[32] = second compound 1 µM, first compound 10 µM
[33] = second compound 3.16 µM, first compound 3.16 µM
[34] = second compound 3.16 µM, first compound 10 µM
[35] = second compound 10 µM, first compound 3.16 µM
[36] = second compound 10 µM, first compound 10 µM
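Also: spheroids exposed to drugs for seven days before reading.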
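For viability, T/C in this document: 100% = DMSO vehicle control viability in luminescence.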

## C=CCn1c(=O)c2cnc(Nc3ccc(N4CCN(C)CC4)cc3)nc2n1-c1cccc(C(C)(C)O)n1 + COC1C(OC(N)=O)C(O)C(Oc2ccc3c(O)c(NC(=O)c4ccc(O)c(CC=C(C)C)c4)c(=O)oc3c2C)OC1(C)C
Second compound 0.0316 µM
  IC50: 0.664 µM
Second compound 0.1 µM
  IC50: 0.675 µM
Second compound 0.316 µM
  IC50: 0.656 µM
Second compound 1 µM
  IC50: 0.704 µM
Second compound 3.16 µM
  IC50: 0.737 µM
Second compound 10 µM
  IC50: 0.761 µM
Second compound 0.0316 µM, first compound 0.00316 µM
  viability, T/C: 108%
Second compound 0.0316 µM, first compound 0.01 µM
  viability, T/C: 87.3%
[1]
  viability, T/C: 98.5%
[2]
  viability, T/C: 93.9%
[3]
  viability, T/C: 89.2%
[4]
  viability, T/C: 28.2%
Second compound 0.1 µM, first compound 0.00316 µM
  viability, T/C: 101%
Second compound 0.1 µM, first compound 0.01 µM
  viability, T/C: 93.8%
[5]
  viability, T/C: 98%
[6]
  viability, T/C: 90.3%
[7]
  viability, T/C: 82.2%
[8]
  viability, T/C: 33.7%
Second compound 0.316 µM, first compound 0.00316 µM
  viability, T/C: 98.6%
Second compound 0.316 µM, first compound 0.01 µM
  viability, T/C: 91.6%
[9]
  viability, T/C: 99.4%
[10]
  viability, T/C: 105%
[11]
  viability, T/C: 74.5%
[12]
  viability, T/C: 35.9%
Second compound 1 µM, first compound 0.00316 µM
  viability, T/C: 95.4%
Second compound 1 µM, first compound 0.01 µM
  viability, T/C: 96.1%
[13]
  viability, T/C: 103%
[14]
  viability, T/C: 106%
[15]
  viability, T/C: 84.3%
[16]
  viability, T/C: 34.9%
Second compound 3.16 µM, first compound 0.00316 µM
  viability, T/C: 92.6%
Second compound 3.16 µM, first compound 0.01 µM
  viability, T/C: 95.4%
[17]
  viability, T/C: 90.7%
[18]
  viability, T/C: 93.5%
[19]
  viability, T/C: 88%
[20]
  viability, T/C: 36.2%
Second compound 10 µM, first compound 0.00316 µM
  viability, T/C: 98.3%
Second compound 10 µM, first compound 0.01 µM
  viability, T/C: 97.3%
[21]
  viability, T/C: 102%
[22]
  viability, T/C: 90%
[23]
  viability, T/C: 96.2%
[24]
  viability, T/C: 35.7%

## CC1COCCN1c1cc(C2(S(C)(=N)=O)CC2)nc(-c2ccnc3[nH]ccc23)n1 (stereo unspecified) + COC1C(OC(N)=O)C(O)C(Oc2ccc3c(O)c(NC(=O)c4ccc(O)c(CC=C(C)C)c4)c(=O)oc3c2C)OC1(C)C
Second compound 0.0316 µM
  IC50: 4.72 µM
Second compound 0.1 µM
  IC50: 4.58 µM
Second compound 0.316 µM
  IC50: 3.33 µM
Second compound 1 µM
  IC50: 5.31 µM
Second compound 3.16 µM
  IC50: 5.42 µM
Second compound 10 µM
  IC50: 5.18 µM
[1]
  viability, T/C: 108%
[2]
  viability, T/C: 94.3%
[3]
  viability, T/C: 99.6%
[4]
  viability, T/C: 97.3%
[25]
  viability, T/C: 61.3%
[26]
  viability, T/C: 28.7%
[5]
  viability, T/C: 118%
[6]
  viability, T/C: 99%
[7]
  viability, T/C: 103%
[8]
  viability, T/C: 95.4%
[27]
  viability, T/C: 56.2%
[28]
  viability, T/C: 36.1%
[9]
  viability, T/C: 103%
[10]
  viability, T/C: 99.2%
[11]
  viability, T/C: 108%
[12]
  viability, T/C: 95.8%
[29]
  viability, T/C: 51%
[30]
  viability, T/C: 31.9%
[13]
  viability, T/C: 101%
[14]
  viability, T/C: 103%
[15]
  viability, T/C: 99%
[16]
  viability, T/C: 97.3%
[31]
  viability, T/C: 63.1%
[32]
  viability, T/C: 34%
[17]
  viability, T/C: 102%
[18]
  viability, T/C: 109%
[19]
  viability, T/C: 104%
[20]
  viability, T/C: 91.8%
[33]
  viability, T/C: 60.9%
[34]
  viability, T/C: 37.8%
[21]
  viability, T/C: 104%
[22]
  viability, T/C: 103%
[23]
  viability, T/C: 114%
[24]
  viability, T/C: 95.7%
[35]
  viability, T/C: 62.9%
[36]
  viability, T/C: 33.2%

## CCCS(=O)(=O)Nc1ccc(F)c(C(=O)c2c[nH]c3ncc(-c4ccc(Cl)cc4)cc23)c1F + COC1C(OC(N)=O)C(O)C(Oc2ccc3c(O)c(NC(=O)c4ccc(O)c(CC=C(C)C)c4)c(=O)oc3c2C)OC1(C)C
Second compound 0.0316 µM
  IC50: > 10 µM
Second compound 0.1 µM
  IC50: > 10 µM
Second compound 0.316 µM
  IC50: > 10 µM
Second compound 1 µM
  IC50: > 10 µM
Second compound 3.16 µM
  IC50: > 10 µM
Second compound 10 µM
  IC50: > 10 µM
[1]
  viability, T/C: 115%
[2]
  viability, T/C: 97.6%
[3]
  viability, T/C: 110%
[4]
  viability, T/C: 96.9%
[25]
  viability, T/C: 124%
[26]
  viability, T/C: 97.9%
[5]
  viability, T/C: 105%
[6]
  viability, T/C: 103%
[7]
  viability, T/C: 110%
[8]
  viability, T/C: 108%
[27]
  viability, T/C: 107%
[28]
  viability, T/C: 113%
[9]
  viability, T/C: 109%
[10]
  viability, T/C: 110%
[11]
  viability, T/C: 105%
[12]
  viability, T/C: 106%
[29]
  viability, T/C: 104%
[30]
  viability, T/C: 108%
[13]
  viability, T/C: 104%
[14]
  viability, T/C: 100%
[15]
  viability, T/C: 107%
[16]
  viability, T/C: 103%
[31]
  viability, T/C: 101%
[32]
  viability, T/C: 100%
[17]
  viability, T/C: 110%
[18]
  viability, T/C: 102%
[19]
  viability, T/C: 108%
[20]
  viability, T/C: 97.3%
[33]
  viability, T/C: 106%
[34]
  viability, T/C: 117%
[21]
  viability, T/C: 107%
[22]
  viability, T/C: 102%
[23]
  viability, T/C: 103%
[24]
  viability, T/C: 101%
[35]
  viability, T/C: 124%
[36]
  viability, T/C: 117%
